Laboratory results as given in patent US20230322846A9, “NEUROACTIVE STEROIDS AND THEIR METHODS OF USE” (SAGE THERAPEUTICS, INC., priority 2018, published 2023).

Biological target: [35S]-TBPS binding, rat brain cortical membranes
Assay: Steroid inhibition of [35S]-TBPS binding
Details: 3 nM [35S]-TBPS, in the presence of 5 mM GABA
Procedure: [^35S]-t-Butylbicyclophosphorothionate (TBPS) binding assays using rat brain cortical membranes in the presence of 5 mM GABA has been described (Gee et al, J. Pharmacol. Exp. Ther. 1987, 241, 346-353; Hawkinson et al, Mol. Pharmacol. 1994, 46, 977-985; Lewin, A. H et al., Mol. Pharmacol. 1989, 35, 189-194).
Briefly, cortices are rapidly removed following decapitation of carbon dioxide-anesthetized Sprague-Dawley rats (200-250 g). The cortices are homogenized in 10 volumes of ice-cold 0.32 M sucrose using a glass/teflon homogenizer and centrifuged at 1500×g for 10 min at 4° C. The resultant supernatants are centrifuged at 10,000×g for 20 min at 4° C. to obtain the P2 pellets. The P2 pellets are resuspended in 200 mM NaCl/50 mM Na—K phosphate pH 7.4 buffer and centrifuged at 10,000×g for 10 min at 4° C. This washing procedure is repeated twice and the pellets are resuspended in 10 volumes of buffer. Aliquots ([…]) of the membrane suspensions are incubated with 3 nM [^35S]-TBPS and […] aliquots of test drug dissolved in dimethyl sulfoxide (DMSO) (final 0.5%) in the presence of 5 mM GABA. The incubation is brought to a final volume of 1.0 mL with buffer. Nonspecific binding is determined in the presence of […] and ranged from 15 to 25%. Following a 90 min incubation at room temp, the assays are terminated by filtration through glass fiber filters (Schleicher and Schuell No. 32) using a cell harvester (Brandel) and rinsed three times with ice-cold buffer. Filter bound radioactivity is measured by liquid scintillation spectrometry. Non-linear curve fitting of the overall data for each drug averaged for each concentration is done using Prism (GraphPad). […] The concentration of test compound producing 50% inhibition (IC50) of specific binding and the maximal extent of inhibition (Imax) are determined for the individual experiments with the same model used for the overall data and then the means±SEM.s of the individual experiments are calculated.
Various compounds are or can be screened to determine their potential as modulators of [^35S]-TBPS binding in vitro. These assays are or can be performed in accordance with the above

SMILES | IC50
CC[C@]12CC[C@@](C)(O)C[C@H]1CC[C@H]1[C@@H]3CC[C@H](C(C)Cn4cc(C#N)cn4)[C@@]3(C)CC[C@@H]12 (stereo in doubt) [Example 325, 1-((S)-2-((3R,5R,8S,9S,10S,13S,14S,17R)-10-ethyl-3-hydroxy-3,13-dimethylhexadecahydro-1H-cyclopenta[a]phenanthren-17-yl)propyl)-1H-pyrazole-4-carbonitrile] | < 0.1 µM
CC[C@]12CC[C@@](C)(O)C[C@H]1CC[C@H]1[C@@H]3CC[C@H](C(C)Cn4cc(C#N)cn4)[C@@]3(C)CC[C@@H]12 (stereo in doubt) [Example 326, 1-((R)-2-((3R,5R,8S,9S,10S,13S,14S,17R)-10-ethyl-3-hydroxy-3,13-dimethylhexadecahydro-1H-cyclopenta[a]phenanthren-17-yl)propyl)-1H-pyrazole-4-carbonitrile] | < 0.1 µM
CCC[C@@]1(O)CC[C@@]2(C)[C@H](CC[C@H]3[C@@H]4CC[C@H](C(C)Cn5cc(C#N)cn5)[C@@]4(C)CC(=O)[C@@H]32)C1 (stereo in doubt) [Example 340, 1-((R)-2-((3R,5R,8S,9S,10S,13S,14S,17R)-3-hydroxy-10,13-dimethyl-11-oxo-3-propylhexadecahydro-1H-cyclopenta[a]phenanthren-17-yl)propyl)-1H-pyrazole-4-carbonitrile] | < 0.1 µM
CCOC(=O)c1cnc(C[C@H](C)[C@H]2CC[C@H]3[C@@H]4CC[C@H]5C[C@](C)(O)CC[C@@H]5[C@H]4CC[C@]23C)o1 (stereo in doubt) [Example 455] | < 0.1 µM
CCOC(=O)c1cnc(C[C@@H](C)[C@H]2CC[C@H]3[C@@H]4CC[C@@H]5C[C@](C)(O)CC[C@@H]5[C@H]4CC[C@]23C)o1 (stereo in doubt) [Example 456] | 0.1 to 1 µM
C[C@@]1(O)CC[C@H]2[C@H](CC[C@@H]3[C@@H]2CC[C@]2(C)[C@@H](CN4CCCCC4=O)CC[C@@H]32)C1 [Example 1, 1-(((3R,5R,8R,9R,10S,13S,14S,17S)-3-hydroxy-3,13-dimethylhexadecahydro-1H-cyclopenta[a]phenanthren-17-yl)methyl)piperidin-2-one] | 1 to 10 µM
CN(C[C@H]1CC[C@H]2[C@@H]3CC[C@@H]4C[C@](C)(O)CC[C@@H]4[C@H]3CC[C@]12C)C(=O)c1ccccc1 [Example 2, N-(((3R,5R,8R,9R,10S,13S,14S,17S)-3-hydroxy-3,13-dimethylhexadecahydro-1H-cyclopenta[a]phenanthren-17-yl)methyl)-N-methylbenzamide] | 0.1 to 1 µM
C[C@@]1(O)CC[C@H]2[C@H](CC[C@@H]3[C@@H]2CC[C@]2(C)[C@@H](CNC(=O)c4ccccc4)CC[C@@H]32)C1 [Example 3, N-(((3R,5R,8R,9R,10S,13S,14S,17S)-3-hydroxy-3,13-dimethylhexadecahydro-1H-cyclopenta[a]phenanthren-17-yl)methyl)benzamide] | < 0.1 µM
CN(C[C@H]1CC[C@H]2[C@@H]3CC[C@@H]4C[C@](C)(O)CC[C@@H]4[C@H]3CC[C@]12C)S(=O)(=O)c1ccccc1 [Example 5, N-(((3R,5R,8R,9R,10S,13S,14S,17S)-3-hydroxy-3,13-dimethylhexadecahydro-1H-cyclopenta[a]phenanthren-17-yl)methyl)-N-methylbenzenesulfonamide] | < 0.1 µM
C[C@H]1CCCC(=O)N1C[C@H]1CC[C@H]2[C@@H]3CC[C@@H]4C[C@](C)(O)CC[C@@H]4[C@H]3CC[C@]12C [Example 6, (S)-1-(((3R,5R,8R,9R,10S,13S,14S,17S)-3-hydroxy-3,13-dimethylhexadecahydro-1H-cyclopenta[a]phenanthren-17-yl)methyl)-6-methylpiperidin-2-one] | 1 to 10 µM
C[C@@H]1CCCC(=O)N1C[C@H]1CC[C@H]2[C@@H]3CC[C@@H]4C[C@](C)(O)CC[C@@H]4[C@H]3CC[C@]12C [Example 7, (R)-1-(((3R,5R,8R,9R,10S,13S,14S,17S)-3-hydroxy-3,13-dimethylhexadecahydro-1H-cyclopenta[a]phenanthren-17-yl)methyl)-6-methylpiperidin-2-one] | 1 to 10 µM
C[C@@]1(O)CC[C@H]2[C@H](CC[C@@H]3[C@@H]2CC[C@]2(C)[C@@H](CNC(=O)Cc4ccccc4)CC[C@@H]32)C1 [Example 8, N-(((3R,5R,8R,9R,10S,13S,14S,17S)-3-hydroxy-3,13-dimethylhexadecahydro-1H-cyclopenta[a]phenanthren-17-yl)methyl)-2-phenylacetamide] | < 0.1 µM
C[C@@]1(O)CC[C@H]2[C@H](CC[C@@H]3[C@@H]2CC[C@]2(C)[C@@H](CN4C[C@@H](c5ccccc5)CC4=O)CC[C@@H]32)C1 [Example 9, (R)-1-(((3R,5R,8R,9R,10S,13S,14S,17S)-3-hydroxy-3,13-dimethylhexadecahydro-1H-cyclopenta[a]phenanthren-17-yl)methyl)-4-phenylpyrrolidin-2-one] | 0.1 to 1 µM
C[C@@]1(O)CC[C@H]2[C@H](CC[C@@H]3[C@@H]2CC[C@]2(C)[C@@H](CN4C[C@H](c5ccccc5)CC4=O)CC[C@@H]32)C1 [Example 10, (S)-1-(((3R,5R,8R,9R,10S,13S,14S,17S)-3-hydroxy-3,13-dimethylhexadecahydro-1H-cyclopenta[a]phenanthren-17-yl)methyl)-4-phenylpyrrolidin-2-one] | 0.1 to 1 µM
C[C@@]1(O)CC[C@H]2[C@H](CC[C@@H]3[C@@H]2CC[C@]2(C)[C@@H](CN4CC[C@@H](c5ccccc5)C4=O)CC[C@@H]32)C1 [Example 11, (S)-1-(((3R,5R,8R,9R,10S,13S,14S,17S)-3-hydroxy-3,13-dimethylhexadecahydro-1H-cyclopenta[a]phenanthren-17-yl)methyl)-3-phenylpyrrolidin-2-one] | 0.1 to 1 µM
C[C@@]1(O)CC[C@H]2[C@H](CC[C@@H]3[C@@H]2CC[C@]2(C)[C@@H](CN4CC[C@H](c5ccccc5)C4=O)CC[C@@H]32)C1 [Example 12, (R)-1-(((3R,5R,8R,9R,10S,13S,14S,17S)-3-hydroxy-3,13-dimethylhexadecahydro-1H-cyclopenta[a]phenanthren-17-yl)methyl)-3-phenylpyrrolidin-2-one] | < 0.1 µM
C[C@@]1(O)CC[C@H]2[C@H](CC[C@@H]3[C@@H]2CC[C@]2(C)[C@@H](CN4C(=O)CCC[C@@H]4c4ccccc4)CC[C@@H]32)C1 [Example 13, (R)-1-(((3R,5R,8R,9R,10S,13S,14S,17S)-3-hydroxy-3,13-dimethylhexadecahydro-1H-cyclopenta[a]phenanthren-17-yl)methyl)-6-phenylpiperidin-2-one] | < 0.1 µM
C[C@@]1(O)CC[C@H]2[C@H](CC[C@@H]3[C@@H]2CC[C@]2(C)[C@@H](CN4C(=O)CCC[C@H]4c4ccccc4)CC[C@@H]32)C1 [Example 14, (S)-1-(((3R,5R,8R,9R,10S,13S,14S,17S)-3-hydroxy-3,13-dimethylhexadecahydro-1H-cyclopenta[a]phenanthren-17-yl)methyl)-6-phenylpiperidin-2-one] | 0.1 to 1 µM
CCOC[C@@]1(O)CC[C@H]2[C@H](CC[C@@H]3[C@@H]2CC[C@]2(C)[C@@H](CNC(=O)c4ccccc4)CC[C@@H]32)C1 [Example 15, N-(((3R,5R,8R,9R,10S,13S,14S,17S)-3-(ethoxymethyl)-3-hydroxy-13-methylhexadecahydro-1H-cyclopenta[a]phenanthren-17-yl)methyl)benzamide] | < 0.1 µM
COC[C@@]1(O)CC[C@H]2[C@H](CC[C@@H]3[C@@H]2CC[C@]2(C)[C@@H](CNC(=O)c4ccccc4)CC[C@@H]32)C1 [Example 16, N-(((3R,5R,8R,9R,10S,13S,14S,17S)-3-hydroxy-3-(methoxymethyl)-13-methylhexadecahydro-1H-cyclopenta[a]phenanthren-17-yl)methyl)benzamide] | < 0.1 µM
C[C@H](NS(=O)(=O)c1ccccc1)[C@H]1CC[C@H]2[C@@H]3CC[C@@H]4C[C@](C)(O)CC[C@@H]4[C@H]3CC[C@]12C [Example 17, N—((S)-1-((3R,5R,8R,9R,10S,13S,14S,17S)-3-hydroxy-3,13-dimethylhexadecahydro-1H-cyclopenta[a]phenanthren-17-yl)ethyl)benzenesulfonamide] | 1 to 10 µM
